Each block holds one compound with its values, some of them ahead of it.
Experiments:
[1] = metabolite from biotransformation in the liver; cited from earlier work
[2] = tested on: acute schizophrenia; conditions: neuroleptic responsive inpatients with acute schizophrenia; cited from earlier work
[3] = target: D3 (Homo sapiens, UniProt P35462); test: pKi of test compounds, D3 receptor; assay type: binding; conditions: read-out: pKi D3 (converted)
[4] = target: T1, D4 receptor (Homo sapiens, UniProt P21917); test: pKi of test compounds, D4 receptor; assay type: binding; conditions: D4; read-out: pKi D4 (converted)
T1 sequence (P21917 1-419): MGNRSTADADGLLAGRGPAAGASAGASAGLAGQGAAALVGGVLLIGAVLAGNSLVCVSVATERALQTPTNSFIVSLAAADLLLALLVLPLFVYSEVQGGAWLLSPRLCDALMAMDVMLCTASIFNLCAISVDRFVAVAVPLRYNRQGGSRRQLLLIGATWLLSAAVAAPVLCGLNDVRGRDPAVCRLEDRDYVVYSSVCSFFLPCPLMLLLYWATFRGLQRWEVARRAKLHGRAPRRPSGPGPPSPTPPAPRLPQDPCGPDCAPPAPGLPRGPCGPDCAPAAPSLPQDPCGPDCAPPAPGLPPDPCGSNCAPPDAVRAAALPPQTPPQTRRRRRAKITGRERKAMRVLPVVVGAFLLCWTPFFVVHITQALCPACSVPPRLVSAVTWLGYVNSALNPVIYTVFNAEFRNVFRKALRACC

[5] = target: T2, 5HT1A (Homo sapiens, UniProt P08908); test: pKi of test compounds, 5HT1A receptor; assay type: binding
T2 sequence (P08908 1-422): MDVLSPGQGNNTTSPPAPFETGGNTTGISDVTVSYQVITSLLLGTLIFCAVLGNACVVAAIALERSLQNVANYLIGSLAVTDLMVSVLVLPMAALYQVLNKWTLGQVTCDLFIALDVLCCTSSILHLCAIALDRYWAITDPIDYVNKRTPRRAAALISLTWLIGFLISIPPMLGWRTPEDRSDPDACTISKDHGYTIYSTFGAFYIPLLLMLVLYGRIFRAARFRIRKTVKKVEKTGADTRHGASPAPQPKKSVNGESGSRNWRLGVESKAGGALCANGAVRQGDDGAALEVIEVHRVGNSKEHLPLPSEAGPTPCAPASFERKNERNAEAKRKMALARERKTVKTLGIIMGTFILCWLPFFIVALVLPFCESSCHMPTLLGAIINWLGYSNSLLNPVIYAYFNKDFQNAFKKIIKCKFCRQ

[6] = target: 5HT1B (Homo sapiens, UniProt P28222); test: pKi of test compounds, 5HT1B receptor; assay type: binding
Sequence of 5HT1B (P28222 whole entry, species assumed): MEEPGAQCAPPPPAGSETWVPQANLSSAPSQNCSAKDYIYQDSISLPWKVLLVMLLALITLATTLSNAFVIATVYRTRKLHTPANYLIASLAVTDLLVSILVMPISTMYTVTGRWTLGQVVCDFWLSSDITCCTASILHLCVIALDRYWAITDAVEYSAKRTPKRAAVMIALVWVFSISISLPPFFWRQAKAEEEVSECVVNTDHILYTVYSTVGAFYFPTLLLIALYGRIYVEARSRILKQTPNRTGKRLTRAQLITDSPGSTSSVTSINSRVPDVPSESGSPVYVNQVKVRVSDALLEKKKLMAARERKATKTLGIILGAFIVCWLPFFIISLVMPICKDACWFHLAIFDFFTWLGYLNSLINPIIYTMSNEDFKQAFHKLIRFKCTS

[7] = target: 5HT1D (Homo sapiens, UniProt P28221); test: pKi of test compounds, 5HT1D receptor; assay type: binding; conditions: read-out: pKi 5HT1D (converted)
Sequence of 5HT1D (P28221 whole entry, species assumed): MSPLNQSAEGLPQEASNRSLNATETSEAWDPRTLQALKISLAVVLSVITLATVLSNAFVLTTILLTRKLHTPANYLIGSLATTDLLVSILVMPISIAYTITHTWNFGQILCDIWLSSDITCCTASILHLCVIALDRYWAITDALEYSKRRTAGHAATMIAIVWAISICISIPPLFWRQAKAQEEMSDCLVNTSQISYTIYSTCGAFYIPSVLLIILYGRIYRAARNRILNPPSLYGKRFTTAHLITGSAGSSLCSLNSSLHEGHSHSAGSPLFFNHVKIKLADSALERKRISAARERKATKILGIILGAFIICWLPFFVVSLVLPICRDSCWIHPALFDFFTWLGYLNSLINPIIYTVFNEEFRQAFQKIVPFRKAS

[8] = target: 5HT1E (Homo sapiens, UniProt P28566); test: pKi of test compounds, 5HT1E receptor; assay type: binding
Sequence of 5HT1E (P28566 whole entry, species assumed): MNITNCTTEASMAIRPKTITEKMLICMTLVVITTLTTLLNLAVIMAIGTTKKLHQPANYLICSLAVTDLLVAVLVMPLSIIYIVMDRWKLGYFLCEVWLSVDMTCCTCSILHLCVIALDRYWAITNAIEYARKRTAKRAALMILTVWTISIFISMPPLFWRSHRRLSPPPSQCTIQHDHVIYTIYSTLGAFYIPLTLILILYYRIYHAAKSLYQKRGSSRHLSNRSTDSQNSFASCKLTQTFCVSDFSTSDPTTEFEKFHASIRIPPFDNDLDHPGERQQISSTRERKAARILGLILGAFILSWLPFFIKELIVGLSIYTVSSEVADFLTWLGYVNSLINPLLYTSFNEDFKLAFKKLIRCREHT

[9] = target: 5HT1F (Homo sapiens, UniProt P30939); test: pKi of test compounds, 5HT1F receptor; assay type: binding
Sequence of 5HT1F (P30939 whole entry, species assumed): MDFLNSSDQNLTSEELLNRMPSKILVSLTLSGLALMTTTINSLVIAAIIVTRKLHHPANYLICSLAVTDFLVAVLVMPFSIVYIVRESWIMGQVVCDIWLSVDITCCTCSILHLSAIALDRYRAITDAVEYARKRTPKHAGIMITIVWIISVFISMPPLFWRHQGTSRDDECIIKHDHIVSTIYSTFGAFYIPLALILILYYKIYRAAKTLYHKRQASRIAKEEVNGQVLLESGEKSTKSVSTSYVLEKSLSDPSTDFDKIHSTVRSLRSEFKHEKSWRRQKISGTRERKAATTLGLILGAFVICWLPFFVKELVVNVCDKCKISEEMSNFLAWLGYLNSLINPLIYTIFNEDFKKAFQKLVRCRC

[10] = target: T3, Alpha2A (Homo sapiens, UniProt P08913); test: pKi of test compounds, adrenergic receptor Alpha2A; assay type: binding
T3 sequence (P08913 1-465): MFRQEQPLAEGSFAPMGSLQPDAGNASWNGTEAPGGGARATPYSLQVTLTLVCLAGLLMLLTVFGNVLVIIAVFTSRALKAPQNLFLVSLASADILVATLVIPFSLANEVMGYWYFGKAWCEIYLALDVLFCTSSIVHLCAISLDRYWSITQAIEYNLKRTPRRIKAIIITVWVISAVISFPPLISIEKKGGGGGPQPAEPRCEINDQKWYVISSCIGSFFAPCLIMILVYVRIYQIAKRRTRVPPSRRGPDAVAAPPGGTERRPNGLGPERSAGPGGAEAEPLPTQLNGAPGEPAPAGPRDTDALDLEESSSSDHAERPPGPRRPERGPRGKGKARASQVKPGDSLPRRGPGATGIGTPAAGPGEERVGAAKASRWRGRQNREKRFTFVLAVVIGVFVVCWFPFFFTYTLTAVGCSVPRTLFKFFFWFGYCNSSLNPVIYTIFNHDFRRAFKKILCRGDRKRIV

[11] = target: T4, Alpha2C (Homo sapiens, UniProt P18825); test: pKi of test compounds, adrenergic receptor Alpha2C; assay type: binding
T4 sequence (P18825 1-462): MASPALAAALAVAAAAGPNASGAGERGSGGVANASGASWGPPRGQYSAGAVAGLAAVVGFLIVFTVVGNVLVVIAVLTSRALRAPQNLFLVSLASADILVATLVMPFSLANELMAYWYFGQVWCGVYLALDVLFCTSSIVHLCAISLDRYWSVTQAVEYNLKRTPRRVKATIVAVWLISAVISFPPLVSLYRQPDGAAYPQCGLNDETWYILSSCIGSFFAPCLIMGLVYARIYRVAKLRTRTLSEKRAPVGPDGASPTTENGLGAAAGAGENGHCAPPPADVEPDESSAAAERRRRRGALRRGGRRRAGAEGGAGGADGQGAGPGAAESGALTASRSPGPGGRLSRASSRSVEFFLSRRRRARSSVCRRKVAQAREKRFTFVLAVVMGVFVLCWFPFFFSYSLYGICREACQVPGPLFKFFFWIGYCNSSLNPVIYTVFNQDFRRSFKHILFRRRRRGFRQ

[12] = target: Beta1 (Homo sapiens, UniProt P08588); test: pKi of test compounds, adrenergic receptor Beta1; assay type: binding
Sequence of Beta1 (P08588 whole entry): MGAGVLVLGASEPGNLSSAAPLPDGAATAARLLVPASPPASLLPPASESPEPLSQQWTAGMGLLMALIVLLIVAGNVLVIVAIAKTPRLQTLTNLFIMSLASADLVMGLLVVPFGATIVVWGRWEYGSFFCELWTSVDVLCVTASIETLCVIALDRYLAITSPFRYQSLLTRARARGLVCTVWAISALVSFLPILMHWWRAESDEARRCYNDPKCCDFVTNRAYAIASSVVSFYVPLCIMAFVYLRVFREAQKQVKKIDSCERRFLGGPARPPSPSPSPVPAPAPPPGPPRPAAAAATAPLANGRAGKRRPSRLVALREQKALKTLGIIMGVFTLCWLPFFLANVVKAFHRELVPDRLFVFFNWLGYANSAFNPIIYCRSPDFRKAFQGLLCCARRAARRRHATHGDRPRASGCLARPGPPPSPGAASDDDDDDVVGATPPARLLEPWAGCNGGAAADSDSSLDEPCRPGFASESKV

[13] = target: Beta2 (Homo sapiens, UniProt P07550); test: pKi of test compounds, adrenergic receptor Beta2; assay type: binding
Sequence of Beta2 (P07550 whole entry): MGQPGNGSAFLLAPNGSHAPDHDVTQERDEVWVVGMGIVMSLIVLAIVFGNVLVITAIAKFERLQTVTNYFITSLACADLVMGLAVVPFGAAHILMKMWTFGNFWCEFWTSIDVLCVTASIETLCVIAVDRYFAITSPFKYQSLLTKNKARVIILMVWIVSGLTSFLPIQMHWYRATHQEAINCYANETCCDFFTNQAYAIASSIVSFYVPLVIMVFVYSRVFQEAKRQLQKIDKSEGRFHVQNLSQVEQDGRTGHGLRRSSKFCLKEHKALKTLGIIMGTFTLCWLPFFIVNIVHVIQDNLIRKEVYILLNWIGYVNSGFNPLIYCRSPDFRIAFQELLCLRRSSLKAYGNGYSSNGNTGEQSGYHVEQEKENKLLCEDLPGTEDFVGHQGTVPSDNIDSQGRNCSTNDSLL

[14] = target: other 5HT receptors; test: pKi towards other 5HT receptors; assay type: binding; conditions: 5-HT1A, 1B, 1D, 1E, 1F, 5-HT2B, 5-HT2C, 5-HT6 (rat), 5-HT7 (rat)
[15] = target: other Dopamine receptors; test: pKi towards other Dopamine receptors; assay type: binding; conditions: D1, D2 and D3

Sequence of D3 (P35462 whole entry): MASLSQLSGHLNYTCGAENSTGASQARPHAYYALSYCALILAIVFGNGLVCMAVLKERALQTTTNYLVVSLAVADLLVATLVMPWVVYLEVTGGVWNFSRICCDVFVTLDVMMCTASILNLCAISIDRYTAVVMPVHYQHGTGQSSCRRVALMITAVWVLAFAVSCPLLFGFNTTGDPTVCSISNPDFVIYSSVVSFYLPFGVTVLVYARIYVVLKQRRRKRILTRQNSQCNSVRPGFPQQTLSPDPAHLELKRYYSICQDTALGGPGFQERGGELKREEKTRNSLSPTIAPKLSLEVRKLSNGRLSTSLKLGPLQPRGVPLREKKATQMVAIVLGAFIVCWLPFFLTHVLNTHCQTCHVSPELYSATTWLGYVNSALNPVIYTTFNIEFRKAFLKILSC

Compound: Cc1nc2n(c(=O)c1CCN1CCC(c3noc4cc(F)ccc34)CC1)CCCC2O (stereo not drawn) [9-hydroxyrisperidone]
- pharmacological activity and intensity relative to parent risperidone [1]: of the same pharmacological activity and intensity as parent risperidone

Compound: Clc1ccc(N2CCN(Cc3c[nH]c4ncccc34)CC2)cc1 [L-745,870]
- antipsychotic efficacy [2]: ineffective as an antipsychotic

- Ki [3]: 0.1 to 1 µM
- Ki [4]: 0.001 to 0.01 µM
- Ki [5]: > 1 µM
- Ki [6]: 0.1 to 1 µM
- Ki [7]: 0.1 to 1 µM
- Ki [8]: > 1 µM
- Ki [9]: > 1 µM
- Ki [10]: 0.1 to 1 µM
- Ki [11]: 0.1 to 1 µM
- Ki [12]: > 1 µM
- Ki [13]: > 1 µM
- pKi value towards other 5HT receptors [14]: less than 8
- pKi value towards other Dopamine receptors [15]: less than 8
Compound: NC(=O)C1(N2CCCCC2)CCN(CCCC(=O)c2ccc(F)cc2)CC1 [Pipamperone, 1′-[3-(p-Fluorobenzoyl)propyl]-[1,4′-bipiperidine]-4′-carboxamide]
